SMILES strings stand for the structures. The source made the active and inactive calls. No cut-off for these calls is given here.

The first assay has as its target Adrenergic receptor alpha-2 (Homo sapiens) (UniProt P08913+P18825+P18089). As to the kind of experiment: Antagonist activity at alpha-2 adrenergic receptor in human brain prefrontal cortex neural membranes assessed as inhibition of [35S]GTPgammaS binding after 120 mins by liquid scintillation counting. It is filed as functional, tissue-based. A general note: GTPγS is a poorly hydrolysed GTP analogue; its binding reports G protein activation.
For `c1ccc(CNC2=NCc3cccnc3N2Cc2ccc3c(c2)OCO3)cc1`, the inhibition entry is “Active”.
Regarding `c1ccc2c(c1)CCN=C(NCc1ccc3c(c1)OCO3)N2`, the inhibition result was “Active”.

The target of another assay is T1, Adrenergic receptor alpha-2 (Homo sapiens, UniProt P08913+P18825+P18089).
T1 sequence (P08913 whole entry): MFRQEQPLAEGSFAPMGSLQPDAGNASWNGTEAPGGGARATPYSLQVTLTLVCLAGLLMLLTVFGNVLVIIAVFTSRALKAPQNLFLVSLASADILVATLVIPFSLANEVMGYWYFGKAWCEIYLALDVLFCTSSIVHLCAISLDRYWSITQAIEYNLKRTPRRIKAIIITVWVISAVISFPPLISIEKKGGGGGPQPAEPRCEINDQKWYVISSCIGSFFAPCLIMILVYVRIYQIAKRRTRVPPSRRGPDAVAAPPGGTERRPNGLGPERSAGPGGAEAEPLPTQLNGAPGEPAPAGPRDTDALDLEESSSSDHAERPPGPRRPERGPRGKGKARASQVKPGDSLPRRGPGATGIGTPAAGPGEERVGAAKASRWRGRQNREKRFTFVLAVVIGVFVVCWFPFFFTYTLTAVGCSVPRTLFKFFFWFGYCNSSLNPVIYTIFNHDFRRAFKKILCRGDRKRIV
T1 sequence (P18825 whole entry): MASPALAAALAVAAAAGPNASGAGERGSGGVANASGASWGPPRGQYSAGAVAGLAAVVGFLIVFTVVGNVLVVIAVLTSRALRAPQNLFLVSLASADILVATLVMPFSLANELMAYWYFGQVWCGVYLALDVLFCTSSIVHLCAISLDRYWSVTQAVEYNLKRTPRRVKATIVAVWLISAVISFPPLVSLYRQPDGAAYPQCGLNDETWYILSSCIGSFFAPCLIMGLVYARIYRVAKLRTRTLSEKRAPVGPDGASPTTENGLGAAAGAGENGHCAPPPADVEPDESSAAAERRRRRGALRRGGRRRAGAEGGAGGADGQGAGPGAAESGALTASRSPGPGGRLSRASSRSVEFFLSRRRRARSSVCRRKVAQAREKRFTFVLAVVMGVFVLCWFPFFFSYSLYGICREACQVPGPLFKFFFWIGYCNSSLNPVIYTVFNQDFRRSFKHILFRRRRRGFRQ
T1 sequence (P18089 whole entry): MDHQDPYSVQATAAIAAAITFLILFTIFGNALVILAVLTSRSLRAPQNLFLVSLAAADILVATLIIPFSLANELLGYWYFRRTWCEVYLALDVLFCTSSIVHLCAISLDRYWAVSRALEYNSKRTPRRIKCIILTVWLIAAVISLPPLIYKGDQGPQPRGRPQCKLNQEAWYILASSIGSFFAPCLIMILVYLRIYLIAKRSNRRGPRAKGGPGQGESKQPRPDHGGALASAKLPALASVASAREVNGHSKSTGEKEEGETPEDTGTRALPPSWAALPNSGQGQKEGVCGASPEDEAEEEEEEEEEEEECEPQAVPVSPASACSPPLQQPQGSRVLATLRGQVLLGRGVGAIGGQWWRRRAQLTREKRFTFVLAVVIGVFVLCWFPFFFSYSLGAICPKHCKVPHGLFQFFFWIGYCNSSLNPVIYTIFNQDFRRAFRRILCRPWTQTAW
Kind of assay: Displacement of [3H]RX821002 from alpha-2 adrenergic receptor in human brain pre-frontal cortex neural membranes after 30 mins by liquid scintillation counting method.
As usually defined, the pKi is −log10 of the Ki, conventionally taken in molar units. The low end stands for a large Ki, the high end for a small Ki. With `OCCN1C(NCc2ccccc2)=NCc2cccnc21`, the pKi came to 5.07.
Same read-out and setting: next, `c1ccc(CNC2=NCc3cccnc3N2Cc2ccc3c(c2)OCO3)cc1`: 5.15.
Take `CCCN1C(NCc2ccccc2)=NCc2ccccc21`: the negative logarithm of the Ki (pKi) is given as 5.29.
Turning to `NC1=NCc2ccccc2N1c1ccccc1`, the pKi came out at 5.85.
`OCCNC1=NCCc2cc3c(cc2N1)OCO3` displayed a negative-log Ki (pKi) of 5.5.
On the same count and under the same terms, as for `CCCN1C(N)=NCc2cccnc21`, the figure is 4.99; as for `c1ccc(CNC2=NCc3ccccc3N2c2ccccc2)cc1`, 4.92; as for `CN(C)c1ccc2c(c1)CCN=C(NCCO)N2`, 4.99.
In turn, `COC1(C2=NCCN2)COc2ccccc2O1` (stereo not drawn) came in with a negative logarithm of the Ki (pKi) of 8.85.
On to `c1ccc2c(c1)CCN=C(NCc1ccc3c(c1)OCO3)N2`, for which the pKi is 6.64.
Same read-out and setting: as for `CCCN1C(NCc2ccccc2)=NCc2cccnc21`, the figure is 5.05; as for `CN(C)c1ccc2c(c1)CCN=C(NCc1ccc3c(c1)OCO3)N2`, 6.14.
On the same count and under the same terms, next, `CN(C)c1ccc2c(c1)CCN=C(NCc1ccco1)N2`: 5.36; `c1ccc(CNC2=NCc3ccccc3N2Cc2ccc3c(c2)OCO3)cc1`: 6.55; `CCCN1C(N)=NCc2ccccc21`: 5.11.
`OCCNC1=NCCc2ccccc2N1`: the pKi came to 5.81.

(Values after ChEMBL document CHEMBL3870303, “Substituted conformationally restricted guanidine derivatives: Probing the α2-adrenoceptors' binding pocket” (Eur J Med Chem, 2016).)
